Source: patent US7919077B2, “Pharmaceutical compositions comprising CCL2 and use of same for the treatment of inflammation” (Yeda Research and Development Co. Ltd., priority 2006, dated 2011)

Columns and labels:
[1] = system: human T cells interacting with VCAM-1 (VLA-4); assay: Laminar flow adhesion assay on VCAM-1 with co-immobilized CCL21; format: cell-based; conditions: low dose chemokine pretreatment
Method: Laminar flow adhesion assays—Purified VCAM-1 or ICAM-1-Fc (both from R&D Systems, Minneapolis, Minn.) were coated with or without CCL21 (R&D Systems) on polystyrene plates as previously described [Grabovsky et al., J Exp Med. (2000) 192:495-506; Sigal et al., J Immunol. (2000) 165:442-452]. The polystyrene plates were each assembled on the lower wall of the flow chamber as previously described [Feigelson et al., J Biol Chem. (2001) 276:13891-13901]. All flow experiments were conducted at 37° C. Cells were washed with cation-free H/H medium, resuspended in binding medium (H/H medium supplemented with 1 mM CaCl2 and 1 mM MgCl2) and perfused through the flow chamber at low shear stress (0.5-0.75 dyn/cm^2) for 2 minutes. Tethers were defined as transient or rolling if cells attached briefly (<2 seconds) to the substrate and as arrests if immediately arrested and remaining stationary for at least 5 seconds of continuous flow. Frequencies of adhesive categories within differently pretreated cells were determined as a percentage of cells flowing immediately over the substrates, as previously described [Grabovsky et al., supra]. To assess resistance to detachment over time, accumulated cells were subjected to a shear stress of 5 dyn/cm^2 for 5 minutes. At the indicated time points, the number of cells that remained bound was expressed relative to T cell population originally accumulated in the first 2 minute period of the assay. Over 90% of cellular tethers to VCAM-1 or ICAM-1 were blocked by pretreating cells with VLA-4 or LFA-1 blockers respectively.

[2] = system: effector (Th1, Th2) T cells; assay: Cytoskeleton rearrangement (actin polymerization), effector T cells; format: cell-based, mice; conditions: CCL2 0.1 ng/ml
Method: T cell sorting—Spleen and […] were obtained from mice as previously described [Shachar I. and Flavell R. A., Science 274:106 (1996)]. T cells were enriched using the MACS system (Miltenyi Biotec, Auburn, Calif.) according to the manufacturer's protocol. Spleen cells were incubated with anti-CD45R (B220) magnetic beads (Miltenyi Biotec, Auburn, Calif.) and the CD45 negative cells were collected. CD4+ T cells were enriched using anti-CD4 magnetic beads (Miltenyi Biotec, Auburn, Calif.). […]
Cytoskeleton rearrangement—T cells were pre-incubated for 30 minutes in the presence or absence of CCL2 (0.1 ng/ml), and then stimulated with either CXCL12 (0.1 mg/ml PeproTech, Inc., Rocky Hill N.J.) or SLC (CCL21, 0.4 mg/ml, PeproTech, Inc., Rocky Hill, N.J.), for 15 seconds. Cells were then immediately fixed with paraformaldehyde, permeabilized and their intracellular F-actin was stained with FITC-phalloidin (Sigma-Aldrich, St. Louis, Mo.), and then analyzed by flow cytometry to determine the state of their cytoskeleton, as previously described [Flaishon, L. F., et al., J. Biol. Chem. 276:46701 (2001)].

[3] = OVA sensitization and challenge mouse asthma model; format: in vivo, BALB/c mice; conditions: OVA-challenged mice
Method: Ovalbumin (OVA) sensitization, challenge and treatment with CCL2—OVA sensitization and challenge were effected following a previously described protocol [Flaishon, L., et al., J. Immunol: Cutting edge 168: 3707 (2002)], BALB/c mice (average: 9 mice/group) were sensitized for OVA by intraperitoneal injections with 100 μg of chicken egg ovalbumin (OVA; Sigma-Aldrich, St. Louis, Mo.) mixed with 2 mg of aluminum hydroxide (Pierce, Rockford, Ill.) in 300 μl PBS (control group mice were injected with PSB alone). Injections were given on day 0, 7, and 14. 15 days after initial sensitization, and following, animals were challenged daily for 5 days (days 15-19) by inhaling 4% OVA in PBS, administered by an ultrasonic nebulizer (DeVilbiss, Somersel, Pa.) for 20 minutes, while the control group was challenged with PBS alone.
One of the groups injected and challenged by OVA was additionally injected i.p. with 300 μl PBS from the first day of OVA inhalation (day 15), for 5 days 20 minutes before each inhalation, and another group was additionally injected with murine CCL2 (60 ng CCL2 per animal per day). PBS-treated control group was PBS challenged and PBS injected. On day 18, 2 hours following inhalation, mice were anesthetized by an i.p. injection of 0.2 ml Ketamine/xylazine, and airway hyper-responsiveness (AHR) was determined by calculating the enhanced respiratory pause (Penh), a function of the ratio of peak expiratory flow to peak inspiratory flow and a function of the timing of expiration, measured in a plethysmographic box during expiration. Delta Penh was calculated by subtracting control Penh measurements, before antigen challenge, from the Penh measurements after antigen challenge. […] On day 19 the mice were sacrificed 2 hours after the last inhalation.
Lung histology—Lungs from mice participating in the OVA sensitization and challenge assay were inflated with 1 ml of 10% formalin until distended. Samples for paraffin sectioning were immersed in 10% formalin and fixed for 48 hours. The tissues were then embedded in paraffin and 2-3 micrometer sections were prepared. […]

CCL2: mammalian (e.g., human) CCL2 protein, GenBank NM_002982 / NP_002973; murine CCL2 used in the asthma model
post arrest adhesion strengthening on VCAM-1 (resistance to detachment) ([1]; high shear stress 5 dyn/cm^2, FIG. 6d): failed to develop adhesion strengthening | VLA-4 activation by surface bound CCL21 (arrest on VCAM-1) ([1]; shear stress 0.75 dyn/cm^2, FIG. 6c): did not interfere | CCL21 induced cytoskeleton rearrangement of effector cells ([2]; CCL21 0.4 mg/ml 15 seconds): down-regulated | CXCL12 induced cytoskeleton rearrangement of effector cells ([2]; CXCL12 15 seconds): down-regulated | peribronchial and perivascular inflammatory infiltrate (inflammatory score 1-4) ([3]; CCL2 60 ng per day i.p., FIG. 8e): significantly reduced | histological changes in the lungs ([3]; CCL2 60 ng per day i.p., FIG. 8d): barely detectable | airway responsiveness (delta Penh) to antigen challenge ([3]; murine CCL2 60 ng per animal per day i.p. for 5 days, FIG. 8a): no airway hyperactivity was observed
